Measured values as given in patent publication US9795688B2, “Cell-specific targeting using nanostructured delivery systems” (SmartDyeLivery GmbH, priority 2013, dated 2017).

Legend:
Type in all cases: cell-based
OAT2 = biological target: T1, OAT2 (Homo sapiens, UniProt Q9Y694); assay: Inhibition of radioactively labeled substrate uptake in transfected HEK-293T cells; details: 10 μmol/L, 5 minutes; [3H]cGMP 10 nM
T1 construct: expressed in transfected cells; host or cells: HEK-293T
T1 sequence (Q9Y694 1-548): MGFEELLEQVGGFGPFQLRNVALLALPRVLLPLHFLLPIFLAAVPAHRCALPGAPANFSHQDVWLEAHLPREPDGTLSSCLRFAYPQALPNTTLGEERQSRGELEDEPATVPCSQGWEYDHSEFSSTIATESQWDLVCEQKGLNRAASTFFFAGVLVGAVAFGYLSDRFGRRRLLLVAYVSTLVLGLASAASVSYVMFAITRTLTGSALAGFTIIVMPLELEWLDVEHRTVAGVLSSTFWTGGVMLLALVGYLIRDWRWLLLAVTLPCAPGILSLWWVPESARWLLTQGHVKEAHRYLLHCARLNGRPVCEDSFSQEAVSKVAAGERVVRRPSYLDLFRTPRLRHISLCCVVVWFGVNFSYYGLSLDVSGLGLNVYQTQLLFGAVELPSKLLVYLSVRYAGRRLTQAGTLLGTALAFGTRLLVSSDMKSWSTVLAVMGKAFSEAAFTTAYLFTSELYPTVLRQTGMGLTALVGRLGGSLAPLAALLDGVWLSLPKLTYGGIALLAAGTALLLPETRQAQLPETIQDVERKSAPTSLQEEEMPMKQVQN
Procedure: (§1) HEK-293T cells were transfected with human tissue-specific hepatocytic transporters. Then the uptake of the polymethine dye DY-635 as a targeting unit into these tissue-specific transporters was investigated for FIG. 10 A. To do so, the cells were sown onto 96 well plates, incubated for 24 hours under standard conditions, then incubated 5 minutes with DY-635 (final concentration in the well: 10 μmol/L) after changing the medium. Next the cells were lysed and the lysates were measured by fluorimetry. […] The uptake by OCT1 can be evaluated as negligible. In FIG. 10 B the question of whether DY-635 binds as an inhibitor to the basolateral hepatocytic transporters was investigated. For this purpose, the HEK-293T cells transfected with the tissue-specific transporters were sown and incubated as described above. After 24 hours the cells were incubated for 5 minutes with either a radioactively labeled transporter-specific substrate or with the radioactive-specific substrate with a specific inhibitor or with DY-635 (10 μmol/L final concentration) (the substrates and their concentrations are shown in Table 3 below). The cells were then washed and lysed in the well. To quantify the uptake, the radioactive radiation of the substrates was used. […] This illustrates the strong interaction of DY-635 with the tissue-specific hepatocytic transporters. It can be concluded that by exposure of DY-635 to the surface of a nanostructured transporter system, immobilization on the cell surface of the hepatocyte occurs, resulting in subsequent endocytosis of the nanoparticle.

OCT1 [1] = biological target: T2, OCT1 (Homo sapiens, UniProt O15245); assay: as above; details: 10 μmol/L, 5 minutes; [3H]1-Methyl-4-phenylpyridinium
T2 construct: expressed in transfected cells; host or cells: HEK-293T
T2 sequence (O15245 1-554): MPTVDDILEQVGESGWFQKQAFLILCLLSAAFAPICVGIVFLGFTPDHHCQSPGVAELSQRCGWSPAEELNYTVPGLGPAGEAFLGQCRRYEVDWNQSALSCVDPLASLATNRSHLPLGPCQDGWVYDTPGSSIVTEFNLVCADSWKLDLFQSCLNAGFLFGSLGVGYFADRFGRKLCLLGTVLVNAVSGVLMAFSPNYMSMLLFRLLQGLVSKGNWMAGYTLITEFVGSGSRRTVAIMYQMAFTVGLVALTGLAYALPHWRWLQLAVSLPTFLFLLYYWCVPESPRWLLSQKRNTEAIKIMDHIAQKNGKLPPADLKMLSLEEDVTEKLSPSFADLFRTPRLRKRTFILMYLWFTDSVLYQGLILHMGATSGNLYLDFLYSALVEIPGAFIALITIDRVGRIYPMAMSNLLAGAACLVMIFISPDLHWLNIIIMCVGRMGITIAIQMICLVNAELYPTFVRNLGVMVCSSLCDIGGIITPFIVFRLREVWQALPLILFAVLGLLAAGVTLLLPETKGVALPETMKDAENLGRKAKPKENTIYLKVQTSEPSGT
Procedure: as §1

OATP1B1 = biological target: T3, OATP1B1 (Homo sapiens, UniProt Q9Y6L6); assay: as above; details: 10 μmol/L, 5 minutes; [3H]Estradiol 30 nM
T3 construct: expressed in transfected cells; host or cells: HEK-293T
T3 sequence (Q9Y6L6 1-691): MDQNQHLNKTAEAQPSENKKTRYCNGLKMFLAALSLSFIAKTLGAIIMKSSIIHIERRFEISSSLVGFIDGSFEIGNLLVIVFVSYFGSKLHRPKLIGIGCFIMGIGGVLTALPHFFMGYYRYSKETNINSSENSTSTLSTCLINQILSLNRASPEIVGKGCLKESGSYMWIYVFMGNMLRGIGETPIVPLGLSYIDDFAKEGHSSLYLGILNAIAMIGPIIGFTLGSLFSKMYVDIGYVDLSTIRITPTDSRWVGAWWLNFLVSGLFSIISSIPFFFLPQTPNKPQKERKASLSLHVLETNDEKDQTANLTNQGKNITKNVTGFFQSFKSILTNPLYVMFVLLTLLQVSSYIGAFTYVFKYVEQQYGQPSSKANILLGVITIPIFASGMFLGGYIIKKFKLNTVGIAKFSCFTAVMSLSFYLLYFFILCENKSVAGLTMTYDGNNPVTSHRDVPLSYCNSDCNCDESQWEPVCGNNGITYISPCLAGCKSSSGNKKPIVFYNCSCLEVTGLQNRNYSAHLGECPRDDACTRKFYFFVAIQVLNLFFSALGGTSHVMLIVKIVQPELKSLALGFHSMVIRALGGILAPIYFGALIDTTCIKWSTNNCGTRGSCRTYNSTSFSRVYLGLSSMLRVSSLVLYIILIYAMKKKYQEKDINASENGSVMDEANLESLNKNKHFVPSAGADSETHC
Procedure: as §1

OATP1B3 = biological target: T4, OATP1B3 (Homo sapiens, UniProt Q9NPD5); assay: as above; details: 10 μmol/L, 5 minutes; [3H]Sulfobromophthalein
T4 construct: expressed in transfected cells; host or cells: HEK-293T
T4 sequence (Q9NPD5 1-702): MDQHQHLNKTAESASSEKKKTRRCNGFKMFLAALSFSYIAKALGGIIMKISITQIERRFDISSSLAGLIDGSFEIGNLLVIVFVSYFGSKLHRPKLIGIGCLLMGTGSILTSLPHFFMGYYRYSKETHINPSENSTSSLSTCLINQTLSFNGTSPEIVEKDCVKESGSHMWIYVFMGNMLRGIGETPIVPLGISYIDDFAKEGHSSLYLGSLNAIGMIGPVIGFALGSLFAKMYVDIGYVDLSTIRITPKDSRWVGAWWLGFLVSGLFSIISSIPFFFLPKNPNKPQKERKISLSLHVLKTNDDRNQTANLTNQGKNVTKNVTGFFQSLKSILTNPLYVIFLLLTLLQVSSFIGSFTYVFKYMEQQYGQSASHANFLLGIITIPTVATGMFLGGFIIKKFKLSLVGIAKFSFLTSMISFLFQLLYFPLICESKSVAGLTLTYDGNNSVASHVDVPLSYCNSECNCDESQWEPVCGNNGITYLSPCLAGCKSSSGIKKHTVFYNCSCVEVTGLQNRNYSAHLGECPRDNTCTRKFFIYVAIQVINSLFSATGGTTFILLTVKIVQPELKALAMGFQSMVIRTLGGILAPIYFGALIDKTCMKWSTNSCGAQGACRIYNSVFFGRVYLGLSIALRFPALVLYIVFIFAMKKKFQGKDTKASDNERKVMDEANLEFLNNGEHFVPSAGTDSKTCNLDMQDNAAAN
Procedure: as §1

NTCP = biological target: T5, NTCP (Homo sapiens, UniProt Q14973); assay: Uptake of DY-635 into transporter-transfected HEK-293T cells; details: 10 μmol/L, 5 minutes
T5 construct: expressed in transfected cells; host or cells: HEK-293T
T5 sequence (Q14973 1-349): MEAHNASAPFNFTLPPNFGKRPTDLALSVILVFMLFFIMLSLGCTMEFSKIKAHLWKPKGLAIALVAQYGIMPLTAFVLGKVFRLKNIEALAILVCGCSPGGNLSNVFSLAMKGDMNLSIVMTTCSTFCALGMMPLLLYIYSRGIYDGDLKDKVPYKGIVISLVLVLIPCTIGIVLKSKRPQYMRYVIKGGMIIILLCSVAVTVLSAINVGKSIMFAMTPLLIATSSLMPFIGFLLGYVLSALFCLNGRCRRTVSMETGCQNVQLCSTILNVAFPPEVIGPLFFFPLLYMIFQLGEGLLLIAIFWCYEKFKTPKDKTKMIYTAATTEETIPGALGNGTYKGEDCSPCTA
Procedure: as §1, with “It can be concluded that by exposure of DY-635 to the surface of a nanostructured transporter system, immobilization on the cell surface of the hepatocyte occurs, resulting in subsequent endocytosis of the nanoparticle.” left out

OCT1 [2] = biological target: T2, OCT1; assay: as above; details: 10 μmol/L, 5 minutes
Procedure: as §1, with “It can be concluded that by exposure of DY-635 to the surface of a nanostructured transporter system, immobilization on the cell surface of the hepatocyte occurs, resulting in subsequent endocytosis of the nanoparticle.” left out

inhibition of OAT2 (OAT2): inhibited
inhibition of OCT1 (OCT1 [1]): inhibited
inhibition of OATP1B1 (OATP1B1): strong indicator
inhibition of OATP1B3 (OATP1B3): strong indicator
uptake of DY-635 by NTCP (NTCP): substrate for NTCP
uptake of DY-635 by OCT1 (OCT1 [2]): negligible
Structure (SMILES): CC(C)(C)C1=CC(=CC=CC2=[N+](CCCCCC(=O)O)c3ccc(S(=O)(=O)[O-])cc3C2(C)C)c2cc3c4c(c2O1)CCCN4CCC3 [DY-635]
